Experimental data reported in a melting point compilation (Tetko et al.; mined from patent text by program, amines drawn as free bases though some values may be those of a salt).

First: Nc1ccccc1CNC(=O)C1Cc2ccccc2N1S(=O)(=O)c1ccc(-c2ccc(F)cc2Cl)cc1 (centres undefined)
Second: Cc1ccc(-c2ccccc2C(=O)NCc2ccc([N+](=O)[O-])cc2)cc1
The melting point of the first is lower: 85 to 90 °C for the first, 153 to 154 °C for the second.

First: COc1cc(NC(=O)C(C)(C)C)ccc1C(=O)N(C)C
Second: COc1ccc(C(=O)c2cc(C(C)(C)C)c(O)c(C(C)(C)C)c2)cc1
The melting point of the first is higher: 143 to 144 °C for the first, 141 to 142 °C for the second.

First: CNC(=O)c1cccc(-c2c(C)cc(C)cc2C)c1
Second: Cc1ccc2oc(=O)c(C(=O)Oc3cc(Cl)ccc3Cl)cc2c1
The melting point of the first is lower: 143 °C for the first, 175 to 179 °C for the second.

Compared with `O=C1CCC(N2Cc3c(OCc4ccc5ccccc5n4)cccc3C2=O)C(=O)N1` (centres undefined), `N#Cc1cccc(OCc2cccc(OCc3ccc4ccccc4n3)c2)c1` is lower in melting point: 269 to 271 °C for the first, 86 to 87 °C for the second.

Compared with `CCNC(=O)[C@@H]1CCCN1C(=O)[C@H](C)NC(=O)C12CC3CC(CC(C3)C1)C2`, `CCCCCN(CCC12CC3CC(CC(C3)C1)C2)C(=O)NCC(CC)Cc1ccncc1` (centres undefined) is lower in melting point: 116 to 118 °C for the first, 72 to 77 °C for the second.

First: CCC12CCC3C4CCC(=O)C=C4CCC3C1CCC2O (centres undefined)
Second: CN(O)C(=O)C1CCC(C2CCCCC2)CC1 (centres undefined)
The melting point of the first is higher: 147 to 149 °C for the first, 89 to 90 °C for the second.

First: O=C(CCC#Cc1ccccn1)Nc1cccc(F)c1
Second: O=C(Nc1cccc(C(=O)O)c1)Oc1ccccc1
The melting point of the first is lower: 110 to 114 °C for the first, 131 to 133 °C for the second.

First: CCOP(=O)(CNC(=O)Nc1c(C(C)C)cccc1C(C)C)OCC
Second: CC(C)c1cccc(C(C)C)c1NC(=O)NC(Cc1ccccc1)c1ccccc1 (centres undefined)
The melting point of the first is lower: 132 to 134 °C for the first, 219 to 221 °C for the second.

First: O=C1c2c(O)cccc2C(=CCc2ccccc2)c2cccc(O)c21
Second: O=C(NCCO)c1ccc(-c2nn(Cc3ccccc3)c3ccccc23)o1
The melting point of the first is higher: 128 to 129 °C for the first, 119 to 127 °C for the second.

Compared with `COc1ccc(NC(=O)C(=O)c2c3n(c4ccccc24)CCNCC3)cc1Cl`, `COc1cc(OC)cc(N2CCN(C(=O)Nc3nc4ccccc4nc3OC)CC2)c1` is lower in melting point: 221 to 223 °C for the first, 140 to 141 °C for the second.

Compared with `CCOC(=O)c1cnc(O)nc1-c1ccccc1`, `Cc1oc(-c2ccccc2)nc1COc1ccc(OC(C)(C)C(=O)O)cc1` is lower in melting point: over 260 °C for the first, 136 to 138 °C for the second.

First: C#CCOc1ccc2ccc(=S)oc2c1
Second: CCCC(O)c1cc(-c2ccc(F)cc2)oc1C (centres undefined)
The melting point of the first is higher: 97 to 101 °C for the first, 96 to 97 °C for the second.

First: COCOc1cc(Cl)ccc1-c1cc(-c2cccc(N(C(=O)OC(C)(C)C)C(=O)[C@@H](N)Cc3c[nH]cn3)c2)c(C#N)c(NC(=O)c2ccco2)n1
Second: COc1cc(OC)c(OC)c(-c2ccc(N(C)CCN(C)c3ccc(-c4cc(OC)cc(OC)c4OC)nc3)cn2)c1
The melting point of the first is lower: 149 to 150 °C for the first, 171 to 172 °C for the second.

First: O=C1Nc2cnc(N3CCN(c4ncccn4)CC3)nc2S/C1=C/c1ccc([N+](=O)[O-])cc1
Second: O=[N+]([O-])c1cnc2ccc(O)cc2c1-c1ccccc1
The melting point of the first is higher: 320 °C for the first, 282 to 284 °C for the second.

First: CC(C)NS(=O)(=O)Cc1ccc([N+](=O)[O-])cc1
Second: O=[N+]([O-])c1ccc(O)c(-c2ccsc2)c1
The melting point of the first is higher: 146 to 147 °C for the first, 130 °C for the second.

First: CCOC(=O)NC(=O)C(Cl)C(C)=O (centres undefined)
Second: CCOC(=O)C1COc2c(OC)ccc([N+](=O)[O-])c2C1 (centres undefined)
The melting point of the first is higher: 69.5 to 70 °C for the first, 66 to 68 °C for the second.

First: CC(C)(C)CC(C)(C)c1cc(-n2nc3ccc(C(=O)O)cc3n2)c(O)c(C(C)(C)c2ccccc2)c1
Second: Cc1oc(-c2ccccc2)nc1COc1ccc(C(=O)c2ccccc2)c(O)c1
The melting point of the first is higher: 219 to 221 °C for the first, 115 to 116 °C for the second.

Compared with `COC1(c2cc(F)cc(F)c2)CCOCC1`, `O=C(O)c1cn(C2CC2)c2c(F)c(N3CCOC(CN4CCOCC4)C3)c(F)cc2c1=O` (centres undefined) is higher in melting point: 100 °C for the first, 171 to 172 °C for the second.

Compared with `NC(=O)COc1ccc(OCc2ccccc2)cc1OCc1ccccc1`, `O=C(NCCO)c1ccc(/C=C/c2ccccc2OCc2ccccc2)cc1` is higher in melting point: 120 °C for the first, 149 to 151 °C for the second.

First: CCC(=O)c1sc(SC)c2c1CCc1cnn(C)c1-2
Second: COC(=O)c1cc(Cl)c2c(c1OC)CCN2C(C)=O
The melting point of the first is higher: 119 to 120 °C for the first, 107 to 109 °C for the second.

Going from `Cc1cc(-n2ccnc2)c2cccc(OCc3c(Cl)ccc(S(=O)(=O)N4CCC[C@H]4C(=O)N(C)CCN(C)C)c3Cl)c2n1` to `CCO[C@@H]1C[C@@H](C(=O)NC)N(S(=O)(=O)c2ccc(Cl)c(COc3cccc4c(-n5ccnc5)cc(C)nc34)c2Cl)C1`, the melting point falls from 98 °C to 80 °C.

First: CCCCCCCCCCCCN(Cc1cccnc1)S(C)(=O)=O
Second: COC(=O)CCCCCCNC(=O)C(CS)Cc1ccccc1 (centres undefined)
The melting point of the first is lower: 43 to 44 °C for the first, 68 to 70 °C for the second.

First: CCOC(=O)C1=C(C)NC(N)=C(C(=O)OCC)C1c1cccc2ccccc12 (centres undefined)
Second: CCOC(=O)C1=C(COCCNS(N)(=O)=O)NC(C)=C(C(=O)OC)C1c1cccc(Cl)c1Cl (centres undefined)
The melting point of the first is higher: 174 °C for the first, 89 to 90 °C for the second.

First: O=C(O)C1c2ccccc2COc2ccc(F)cc21 (centres undefined)
Second: O=c1cc(-c2ccccc2)cc[nH]1
The melting point of the first is lower: 176 °C for the first, 226 to 230 °C for the second.

First: CCc1c(-c2ccc(OCc3ccccc3)cc2)c2ccc3ccc(CO)c1n32
Second: COC(=O)C[C@H](O)C[C@H](O)CCc1c(-c2ccc(F)cc2)c(-c2ccccc2)c(C(=O)NCc2ccccc2)n1C(C)C
The melting point of the first is higher: 99 to 102 °C for the first, 52 to 55 °C for the second.

First: N#Cc1cc(C#N)cc(Oc2nccc(Oc3cc(Cl)cc(Cl)c3)n2)c1
Second: N=C(N)c1ccc(CC23CCCN2C(=O)N(c2cc(Cl)cc(Cl)c2)C3=O)cc1 (centres undefined)
The melting point of the first is lower: 156 °C for the first, 188 °C for the second.

Compared with `COc1cc(CCC2OCCO2)ccc1OCc1nc(-c2ccccc2)oc1C`, `COc1ccc(-c2cc(=Nc3ccc(OCC(O)CNC(C)C)cc3)n(C)c(=O)n2C)cc1OC` (centres undefined) is higher in melting point: 90 to 91 °C for the first, 129 to 132 °C for the second.

First: CC(C)(O)CNC(=O)CC1CN=C(c2cc3cc(Oc4ccc(S(C)(=O)=O)nc4)cc(OC4CCOCC4)c3[nH]2)S1 (centres undefined)
Second: CN(C)Cc1cc(C(=O)c2cccs2)cc(C2CCCCC2)c1O
The melting point of the first is higher: 195 to 196 °C for the first, 105 to 106 °C for the second.

First: CCOc1ccc(C(=O)NCc2ccc3c(c2)C(=O)N(C2(C)CCC(=O)NC2=O)C3=O)cn1 (centres undefined)
Second: COCCn1cc(C(=O)NCc2ccc(Cl)cc2)c(=O)c2cc(CCl)sc21
The melting point of the first is lower: 174 to 176 °C for the first, 192 to 193 °C for the second.

Going from `O=C(Cc1ccccc1)Nc1ccc2ccc(Cl)nc2n1` to `CCOC(=O)Nc1ccc(C(=O)Nc2ccc3ccc(OC)nc3n2)cc1`, the melting point rises from 187 °C to 200 °C.

First: Cc1c(SCCSCc2ccncc2)ccnc1CNc1cnc2ccccc2c1
Second: FC(F)(F)c1cccc(CNc2ncnc3ccccc23)c1
The melting point of the first is lower: 123 to 126 °C for the first, 145 to 146 °C for the second.

Compared with `O=C(Nc1cccc(Cl)c1)Nc1cnnc(Cl)c1`, `O=C(O)Cc1cccc2c(-c3ccc(Cl)cc3)nccc12` is lower in melting point: 240 to 248 °C for the first, 234 to 236 °C for the second.

Compared with `O=C(CCS)N[C@@H](Cc1ccccc1)C(=O)O`, `CSc1ccc(-c2ccccc2)c(NC(N)=S)c1` is higher in melting point: 106 to 107 °C for the first, 166 to 167 °C for the second.

First: CCCCNC(=S)N1CCc2[nH]cnc2C1
Second: CCCCc1nc2c(N)nc3ccccc3c2n1CCCCNS(C)(=O)=O
The melting point of the first is lower: 130 °C for the first, 195 to 196 °C for the second.

Compared with `CCOc1cc(OCC)c2ccccc2c1O`, `COC(=O)c1ccccc1Oc1ccc(C)cc1` is lower in melting point: 83 to 84 °C for the first, 31 to 34 °C for the second.

First: COc1ccc2c(c1)C(c1ccccc1)NC(=O)N2CC1CC1 (centres undefined)
Second: CC(C)(Oc1ccc(CNc2ccc(Cl)cc2)cc1)C(=O)O
The melting point of the first is lower: 133 °C for the first, 155 to 158 °C for the second.

First: O=NSC1(CCO)C2CC3CC(C2)CC1C3 (centres undefined)
Second: CC(O)Cc1ccc(-c2ccc3cc(C(=O)O)ccc3c2)cc1C12CC3CC(CC(C3)C1)C2 (centres undefined)
The melting point of the first is lower: 77 to 79 °C for the first, 282 °C for the second.

First: O=c1c2ccc3[nH]ccc3c2ccn1Cc1ccc(F)cc1
Second: CC1(O)OC(=O)C(c2c(F)cc(F)cc2F)=C1Cc1ccc(Cl)cc1 (centres undefined)
The melting point of the first is higher: 171 to 173 °C for the first, 127 to 129 °C for the second.

First: CC1CN(c2ccc(N)cc2)CC(C)N1 (centres undefined)
Second: Fc1ccc(C(CN2CCCC2)=C2SCCCS2)cc1
The melting point of the first is higher: 124 to 125 °C for the first, 69 to 70 °C for the second.

First: O=S1(=O)CCCN1Cc1ccncc1
Second: CCC(C)NC1=NS(=O)(=O)c2ccc(Cl)cc2N1 (centres undefined)
The melting point of the first is lower: 82 °C for the first, 242 to 245 °C for the second.

Compared with `CCc1nc2c(N)nc3ccccc3c2n1CCOCCNC(=O)Nc1ccccc1`, `Oc1cccc2c1ccn2CCOCCC(c1ccccc1)c1ccccc1` is lower in melting point: 141 to 144 °C for the first, 107 to 109 °C for the second.

First: CCCCCCCCCCCCCCCCCCNC(=O)Oc1ccc([N+](=O)[O-])cc1OC(=O)NCCCCCCCCCCCCCCCCCC
Second: CC(=CCc1c(C)c(N=Nc2ccc([N+](=O)[O-])cc2[N+](=O)[O-])c2ccccc2c1O)CCCC(C)CCCC(C)CCCC(C)C (centres undefined)
The melting point of the first is higher: 117 to 121 °C for the first, 110 °C for the second.

First: CN(C)CCCCNc1nc2cc(Cl)c(Cl)cc2nc1-c1ccccn1
Second: COc1ccc(-c2nc(C)n(CCC(C)(C)NCC(O)c3ccc(O)c(CO)c3)n2)cc1 (centres undefined)
The melting point of the first is lower: 81 to 83 °C for the first, 110 to 116 °C for the second.

First: CC(C)(C)c1cc(C=C2SCN(CCN)C2=O)cc(C(C)(C)C)c1O
Second: CCOC(=O)c1ccc(N2C(=O)CCC2CO)c(NC(=NC(=O)OC(C)(C)C)NC(=O)OC(C)(C)C)c1 (centres undefined)
The melting point of the first is higher: 176 to 178 °C for the first, 104 to 110 °C for the second.

Compared with `CCN(CC)C(=O)c1cc2cc(Br)ccc2o1`, `COC(=O)Cc1ccc(-c2ccc(O)cc2)c(F)c1` is higher in melting point: 79 to 81 °C for the first, 115 to 118 °C for the second.

First: CNS(=O)(=O)c1cc2c(c(C(=O)NCC3CCCN3C)c1)OCCO2 (centres undefined)
Second: CNC(=O)c1ccc(OCC(O)CNC(C)COc2ccc(O)c(C(N)=O)c2)cc1 (centres undefined)
The melting point of the first is higher: 187 to 188 °C for the first, 172 to 175 °C for the second.

First: N#Cc1c[nH]c2cc(Cl)c([N+](=O)[O-])cc2c1=O
Second: N#Cc1ccccc1N=Nc1ccc(O)cc1
The melting point of the first is higher: over 300 °C for the first, 201 to 203 °C for the second.

First: C1=CC2(c3ccccc3CP(Cc3ccccc3)Cc3ccccc3)OC2(CP(Cc2ccccc2)Cc2ccccc2)C2OC12 (centres undefined)
Second: CCCCc1nc(C(=O)C(C)(C)C)c(C#N)n1Cc1ccc(-c2ccccc2-c2nnnn2C(c2ccccc2)(c2ccccc2)c2ccccc2)cc1
The melting point of the first is higher: 203 to 205 °C for the first, 103 to 105 °C for the second.

First: CC(C)(C)OC(=O)C1C(C#CC(=O)O)C1(C)C (centres undefined)
Second: COc1cc2onc(N)c2cc1Br
The melting point of the first is lower: 144 °C for the first, 226 to 227 °C for the second.

`[N-]=[N+]=NCc1ccc2nc[nH]c2c1` gave a melting point of 110 to 114 °C.
